Results taken from patent US11026953B2, “3-beta-hydroxy-5-alpha-pregnan-20-one for use in treatment of essential tremor” (ASARINA PHARMA AB, priority 2017, dated 2021).

Tests used:
[1] = essential tremor, cited from earlier work
[2] = molecular target: T1, human alpha4,beta3,delta GABAA receptor (Homo sapiens, UniProt P28472+P48169); test: Patch-clamp (Dynaflow) current response in HEK-293 cells expressing the human alpha4,beta3,delta GABAA receptor; format: cell-based
T1 construct: expressed in transfected cells
T1 sequence (P48169 36-554): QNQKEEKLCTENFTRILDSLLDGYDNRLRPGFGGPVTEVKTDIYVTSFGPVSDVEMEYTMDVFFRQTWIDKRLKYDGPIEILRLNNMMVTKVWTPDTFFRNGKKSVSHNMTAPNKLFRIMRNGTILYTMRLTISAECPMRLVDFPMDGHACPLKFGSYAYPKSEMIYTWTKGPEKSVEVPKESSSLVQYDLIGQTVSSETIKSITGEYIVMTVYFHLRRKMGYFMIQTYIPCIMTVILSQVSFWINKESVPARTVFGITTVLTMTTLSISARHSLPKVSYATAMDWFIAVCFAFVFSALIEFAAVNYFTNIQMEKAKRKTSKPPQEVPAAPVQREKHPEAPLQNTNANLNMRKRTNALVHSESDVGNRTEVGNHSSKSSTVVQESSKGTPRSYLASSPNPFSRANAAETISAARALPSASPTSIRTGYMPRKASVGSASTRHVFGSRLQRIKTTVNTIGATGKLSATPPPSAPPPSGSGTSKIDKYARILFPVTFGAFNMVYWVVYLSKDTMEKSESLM
T1 sequence (P28472 26-473): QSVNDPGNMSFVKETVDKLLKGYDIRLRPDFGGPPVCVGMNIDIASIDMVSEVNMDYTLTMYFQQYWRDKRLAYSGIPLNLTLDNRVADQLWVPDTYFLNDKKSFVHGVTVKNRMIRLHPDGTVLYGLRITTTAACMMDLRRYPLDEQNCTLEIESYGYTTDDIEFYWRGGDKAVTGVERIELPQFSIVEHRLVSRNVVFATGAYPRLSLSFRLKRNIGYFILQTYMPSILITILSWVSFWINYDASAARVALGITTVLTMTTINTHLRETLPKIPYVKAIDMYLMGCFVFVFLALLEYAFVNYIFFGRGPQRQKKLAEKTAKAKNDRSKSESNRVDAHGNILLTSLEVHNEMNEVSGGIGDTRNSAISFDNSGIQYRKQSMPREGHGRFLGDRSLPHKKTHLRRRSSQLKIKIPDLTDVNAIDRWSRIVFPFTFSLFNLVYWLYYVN
T1 sequence (O14764 17-452 partner limits assumed): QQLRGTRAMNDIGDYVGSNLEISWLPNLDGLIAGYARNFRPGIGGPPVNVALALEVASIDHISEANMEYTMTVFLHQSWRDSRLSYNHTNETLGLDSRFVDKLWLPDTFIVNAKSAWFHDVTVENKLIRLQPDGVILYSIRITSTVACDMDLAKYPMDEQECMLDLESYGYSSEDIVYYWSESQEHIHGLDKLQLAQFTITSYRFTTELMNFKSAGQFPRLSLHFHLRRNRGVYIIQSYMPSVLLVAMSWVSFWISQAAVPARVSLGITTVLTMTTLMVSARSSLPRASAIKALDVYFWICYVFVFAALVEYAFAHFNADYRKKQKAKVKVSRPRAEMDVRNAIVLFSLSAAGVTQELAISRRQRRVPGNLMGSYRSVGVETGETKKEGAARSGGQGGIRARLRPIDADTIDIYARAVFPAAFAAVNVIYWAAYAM
Description: (§1) Assay for testing GABAA receptor effects of 3beta-hydroxy-5alpha-pregnan-20-one on human alpha1,beta,gamma and alpha4,beta,delta GABAA receptor subtype.
(§2) In these tests the protocol was optimized to be similar to the physiological conditions in the synaptic cleft.
(§3) Cell culture: HEK-293 cells, permanently transfected with the human alpha1,beta,gamma and alpha4,beta,delta GABAA receptor subtypes, were seeded at a density of 3×10^4/25 cm^2 in cellbind culture flask. The transfected cells were used for patch-clamp experiments 3 days after seeding. When using the cells for patch-clamp experiments the cells were washed twice with oxygen-bubbled extracellular (EC) solution (see below). About 5 mL EC was then added and the cells were kept in the incubator for about 15 minutes. After 15 minutes the cells came loose from the bottom of the flask and were separated by carefully sucking couple of times with a Pasteur pipette.
(§4) DYNAFLOW™ system with Resolve chip was used for patch-clamp experiments: The electrophysiological recordings from HEK-293 cells were performed under voltage-clamp conditions using patch-clamp technique and the DYNAFLOW™ system (DYNAFLOW™ Pro II Platform Zeiss Axiovert 25; Cellectricon AB, Sweden) with Resolve chips as application system.
(§5) Patch pipettes were pulled from borosilicate glass and polished to a resistance 2-5 MΩ when filled with suitable intracellular solution (IC) (pH was adjusted to 7.2) and immersed in bath solution (extracellular, EC) (pH is adjusted to 7.4). The recordings were made using an Axopatch 200B amplifier, a Digidata 1322A (Axon instruments, Foster city, USA). Data were acquired using the pCLAMP software sampled at 10 kHz, filtered at 2-10 kHz and analyzed with Clampfit (versions 9.0, both from Axon instruments, Foster city, USA). No higher series resistance than 20 MΩ between pipette and cell membrane was accepted. No series resistance compensation was used. The stability of series resistance was monitored repeatedly from the time course of capacitative transients during the experiments. The measured liquid-junction potential between EC and IC was subtracted in all data presented. An experiments were performed at room temperature (21-23° C.).
(§6) All steroids were dissolved to the concentration of 6 mM in DMSO. […] End solutions were the solutions added into the wells of the chip.
(§7) Electrophysiology: After compensating for the liquid junction potential a steady holding potential of −17 mV was used in all experiments. […] By using the holding potential of −17 mV and the intracellular solution with low chloride ion concentration the chloride ions flux into the cell when the receptors were activated.
The DYNAFLOW™ system allowed application of solutions for as short as 40 ms up to minutes in time. […] Therefore, the first GABA application was always repeated twice and the second response was used in the analysis.
Washout: GABA is quite soluble in water and easy to washout from the receptor. […] Steroids on the other hand were difficult to dissolve in water and also difficult to washout from the receptor. In the experiments, THDOC and 3alpha-OH-adiol were used as the positive GABAA receptor modulating steroids. With 2 minutes washout time, 200 nM THDOC and 3alpha-OH-adiol was completely washed out as shown by neither an accumulative nor a desensitization effect.
(§8) Different incubation times were studied to achieve the optimal time for attain stable results and minimize the washout time.
(§9) Biological evaluation—HEK-293 cells, permanently transfected with human alpha1,beta,gamma and alpha4,beta,delta GABAA receptor subtypes and expressing these GABAA receptors.
Cell lines permanently expressing a functional human GABAA receptor was made in following steps. The GABAA receptor subunits alpha1,beta2,gamma2L or alpha4,beta3,delta including introduced Kozac sequences just before the start codons were subcloned into mammalian expression vectors containing Geneticin, Hygromycin B, and Zeocin resistance, respectively. […]

[3] = molecular target: T2, human alpha1,beta2,gamma2 GABAA receptor (Homo sapiens, UniProt P14867+P47870); test: Patch-clamp (Dynaflow) current response in HEK-293 cells expressing the human alpha1,beta2,gamma2 GABAA receptor; format: cell-based; conditions: for Androstandiol effect by itself (baseline shift), current response in absence of GABA: no GABA; for Antagonism of THDOC enhanced GABA effect, single dose: 1 μM UC1010 + 30 μM GABA + 200 nM THDOC; for Imax, maximal antagonism of THDOC effect in concentration-dependent experiment: 0.1-1 μM UC1010 + 30 μM GABA + 200 nM THDOC, max reached at 1 μM
T2 construct: expressed in transfected cells
T2 sequence (P14867 28-456): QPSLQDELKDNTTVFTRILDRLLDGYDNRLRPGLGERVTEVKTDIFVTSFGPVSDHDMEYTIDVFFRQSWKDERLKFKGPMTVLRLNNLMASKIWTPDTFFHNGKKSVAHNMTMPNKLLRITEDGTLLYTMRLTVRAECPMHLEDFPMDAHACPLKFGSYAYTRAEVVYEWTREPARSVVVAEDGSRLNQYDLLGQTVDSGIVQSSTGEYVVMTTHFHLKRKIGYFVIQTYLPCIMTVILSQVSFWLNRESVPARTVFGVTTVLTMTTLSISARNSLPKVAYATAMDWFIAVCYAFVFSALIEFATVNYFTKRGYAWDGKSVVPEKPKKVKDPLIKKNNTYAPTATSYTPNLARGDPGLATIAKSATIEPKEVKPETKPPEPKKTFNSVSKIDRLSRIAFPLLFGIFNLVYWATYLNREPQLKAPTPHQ
T2 sequence (P47870 26-512): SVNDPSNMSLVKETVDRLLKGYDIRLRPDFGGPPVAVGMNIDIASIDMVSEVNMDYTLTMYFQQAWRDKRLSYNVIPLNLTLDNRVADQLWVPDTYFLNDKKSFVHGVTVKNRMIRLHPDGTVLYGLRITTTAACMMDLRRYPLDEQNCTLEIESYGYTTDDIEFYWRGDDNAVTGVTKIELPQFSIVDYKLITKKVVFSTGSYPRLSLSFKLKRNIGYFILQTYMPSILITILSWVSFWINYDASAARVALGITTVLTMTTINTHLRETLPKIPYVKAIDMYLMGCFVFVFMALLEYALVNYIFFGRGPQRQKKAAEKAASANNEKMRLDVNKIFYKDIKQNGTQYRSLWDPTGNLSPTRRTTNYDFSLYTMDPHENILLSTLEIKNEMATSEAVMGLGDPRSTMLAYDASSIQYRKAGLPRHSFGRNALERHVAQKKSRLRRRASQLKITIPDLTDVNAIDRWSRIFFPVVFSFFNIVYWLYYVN
T2 sequence (P18507 40-475 partner): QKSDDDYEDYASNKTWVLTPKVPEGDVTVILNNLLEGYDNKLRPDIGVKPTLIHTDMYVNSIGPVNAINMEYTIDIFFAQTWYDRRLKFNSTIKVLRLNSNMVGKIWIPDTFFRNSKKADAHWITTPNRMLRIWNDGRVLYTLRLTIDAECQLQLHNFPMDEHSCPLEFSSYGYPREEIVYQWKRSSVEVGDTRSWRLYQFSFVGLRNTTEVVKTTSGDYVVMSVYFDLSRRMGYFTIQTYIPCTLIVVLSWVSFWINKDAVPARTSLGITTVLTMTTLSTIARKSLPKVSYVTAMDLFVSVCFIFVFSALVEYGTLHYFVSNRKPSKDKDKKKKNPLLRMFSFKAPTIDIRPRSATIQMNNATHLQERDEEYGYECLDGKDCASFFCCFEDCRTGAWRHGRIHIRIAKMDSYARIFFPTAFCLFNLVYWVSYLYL
Description: as §1, §2, §3, §4, §5, §6, §7
The DYNAFLOW™ system allowed application of solutions for as short as 40 ms up to minutes in time.
In the experiments, THDOC and 3alpha-OH-adiol were used as the positive GABAA receptor modulating steroids.
as §8, §9
Cell lines permanently expressing a functional human GABAA receptor was made in following steps. The GABAA receptor subunits alpha1,beta2,gamma2L or alpha4,beta3,delta including introduced Kozac sequences just before the start codons were subcloned into mammalian expression vectors containing Geneticin, Hygromycin B, and Zeocin resistance, respectively. A HEK-293 cell line stably expressing the three GABAA receptor subunits was produced by transfection of the subunits one at a time.

[4] = HEK293, read-out: Emax, androstandiol enhancement of GABA mediated current
[5] = listed as 3beta-hydroxy-5alpha-pregnan-20-one

For `CCO` [Alcohol], the “Reduction in tremor scores” value ([1]; only during a short period (30 minutes) with a rebound later) is listed as 50%.

With `C[C@]12CC[C@@H](O)C[C@H]1CC[C@@H]1[C@@H]2CC[C@]2(C)[C@@H](C(=O)CO)CC[C@@H]12` [THDOC, Tetrahydrodeoxycorticosterone] the “THDOC baseline shift, current response in absence of GABA” value (“THDOC baseline shift, current response” for short) ([2]; 0.03 μM THDOC, no GABA, Mean ± SEM) was “+5 ± 3.3 pA”, the “THDOC baseline shift, current response” value ([2]; 0.1 μM THDOC, no GABA, Mean ± SEM) was “+15 ± 9.5 pA” and the “THDOC baseline shift, current response” value ([2]; 0.3 μM THDOC, no GABA, Mean ± SEM) was “+12 ± 7.9 pA”. For the same compound, the “THDOC baseline shift, current response” value ([2]; 1 μM THDOC, no GABA, Mean ± SEM) was “+69 ± 35 pA”, the “Emax, THDOC enhancement of GABA mediated current” value ([2]; 3 μM GABA) was 297% and the EC50 ([2]; read-out: EC50, THDOC enhancement of GABA mediated current, 3 μM GABA) was 47 nM. For the same compound, the “Imax/Emax, THDOC enhancement of GABA mediated current” value ([3]; 0.03-1 μM THDOC + 30 μM GABA, control 30 μM GABA set to 0) was “+115%”.

In the case of `C[C@]12CC[C@@H](O)C[C@@H]1CC[C@@H]1[C@@H]2CC[C@]2(C)C(O)CC[C@@H]12` (stereo partly drawn) [Androstandiol, 3alpha-hydroxy-5alpha-androstan-17-ol], the “Potency at alpha4,beta3,delta relative to alpha1,beta2,gamma2 (higher)” value ([2]; 0.38 μM vs. 3.4 μM) is reported as 10 times, the “Androstandiol baseline shift, current response in absence of GABA” value ([2]; 3 μM androstandiol, no GABA, Mean ± SEM) is reported as “+8 ± 3.6 pA” and the “Androstandiol baseline shift, current response in absence of GABA” value ([2]; 10 μM androstandiol, no GABA, Mean ± SEM) is reported as “+13 ± 4.8 pA”. For the same compound, the Emax [2, 4] was 142%, the “Androstandiol effect by itself (baseline shift), current response in absence of GABA” value ([3]; 3 μM androstandiol, Mean ± SEM) was “+8 ± 3.6 pA” and the “Androstandiol effect by itself (baseline shift), current response in absence of GABA” value ([3]; 8 μM androstandiol, Mean ± SEM) was “+13 ± 2.3 pA”. The “Androstandiol effect by itself (baseline shift), current response in absence of GABA” value ([3]; 10 μM androstandiol, Mean ± SEM) was “+11 ± 1.5 pA”, the “Androstandiol effect by itself (baseline shift), current response in absence of GABA” value ([3]; 30 μM androstandiol, Mean ± SEM) was “+24 ± 6.8 pA” and the “Androstandiol effect by itself (baseline shift), current response in absence of GABA” value ([3]; 100 μM androstandiol, Mean ± SEM) was “+43 ± 5.7 pA”. For the same compound, the Emax [3, 4] was 281% and the “Potency relative to THDOC in enhancing the effect of GABA (less potent)” value ([3]; androstandiol vs THDOC) was 48 times.

For `Cc1nnc2n1-c1ccc(Cl)cc1C(c1ccccc1)=NC2` [alprazolam], the “Reduction of tremor scores” value [1] is listed as 25%.

For `CC(=O)[C@H]1CC[C@H]2[C@@H]3CC[C@H]4C[C@@H](O)CC[C@]4(C)[C@H]3CC[C@]12C` [UC1010, 3beta-hydroxy-5alpha-pregnan-20-one], the “Effect of 1 μM UC1010 on 3 μM GABA response” value ([2]; 1 μM UC1010, 3 μM GABA, Mean ± SEM, N=11, NS) was −6.7 ± 3.3%, the “Effect of 1 μM UC1010 on 0.6 μM Androstandiol + 3 μM GABA” value ([2]; 1 μM UC1010, Mean ± SEM) was −18 ± 2.0% and the “Effect of 1 μM UC1010 on 0.8 μM Androstandiol + 3 μM GABA” value ([2]; 1 μM UC1010, Mean ± SEM) was −22 ± 2.6%. The “Effect of 1 μM UC1010 on 0.1 μM THDOC alone baseline” value ([2]; 1 μM UC1010, THDOC induced baseline shift without GABA, Mean ± SEM) was −43 ± 3.5%, the “Effect of UC1010 on GABA-mediated current response, GABA alone (in words)” value ([2]; 1 μM UC1010, data not shown) was “without any significant effect” and the “Effect of 1 μM UC1010 on 0.1 μM THDOC + 3 μM GABA” value ([2]; 1 μM UC1010, steady state, Mean ± SEM) was −26 ± 2.4%. The “Effect of the compound by itself, current response” value ([2]; 1 μM, no GABA, no THDOC, N=11, NS vs EC solution) was −0.4±0.3 pA, the “Antagonism of THDOC enhanced GABA effect, single dose” value [3] was −21 ± 4.6% and the “Antagonism of THDOC enhanced GABA effect, single dose” value [3, 5] was −22.3±5.3%. For the same compound, the “Modulatory effect of UC1010 on GABA response” value ([3]; 1 μM UC1010 + 30 μM GABA, vs GABA alone, NS, n=9) was 10.3±7.8%, the “Effect of 1 μM UC1010 on 8 μM Androstandiol + 30 μM GABA” value ([3]; 1 μM UC1010, steady state (phasic effect), Mean ± SEM) was −30 ± 1.7% and the “Effect of 1 μM UC1010 on 8 μM Androstandiol, baseline shift” value ([3]; 1 μM UC1010, tonic effect without GABA, Mean ± SEM) was −33 ± 7.6%. The “Imax, maximal antagonism of THDOC effect in concentration-dependent experiment” value [3] was −21% and the “Imax, maximal antagonism of THDOC effect in concentration-dependent experiment” value [3, 5] was −21±4.6%.

For `CCC1(c2ccccc2)C(=O)NCNC1=O` [Primidone, primidone], the “Reduction of tremor scores” value [1] is listed as 35-50%.
